Source: patent US20040121947A1, “Compounds which inhibit beta-secretase activity and methods of use thereof” (Oklahoma Medical Research Foundation, priority 2000, published 2004)
Where two headings read alike, the source gives them in different places. *1 amine or outer side, *2 acyl side, *3 side chain or, on linkers, in order; H or OH if unused. Where a SMILES comes first, the peptide text is derived from it. [ ]: non-standard residue; d: D form. LeuΨ(S-CHOHCH2)Ala = CC(C)C[C@H](N[*:1])[C@@H](O)C[C@@H](C)C(=O)[*:2]

Target: T1, memapsin 2 (Homo sapiens, UniProt P56817)
T1 construct: pET-11 vector-derived residues 1-15 of promemapsin 2-T1 (N, cleaved yes); made in house; host or cells: E. coli
Assay: Inhibition of memapsin 2 proteolytic activity, fluorogenic substrate FS-2
Assay type: biochemical
Settings: for Vi/Vo: ratio of initial cleavage velocities of FS-2 with/without compound, enzyme and inhibitor concentrations equal (e.g., about 80 nM, 100 nM)
Summary of the method: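 Inhibitors tested at about 10 nM to 10 μM in pH 4.0 0.1 M sodium acetate containing 10% (v/v) DMSO, after 20 min preincubation at 37 °C with 80 nM self-activated memapsin 2. Substrate-independent Ki derived from apparent Ki via Km and substrate level.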

[1] = memapsin 2, independent of substrate, converted from Ki apparent, read-out: Ki
[2] = memapsin 2, apparent Ki in presence of substrate FS-2, read-out: Ki app
[3] = Ki, [I] < 100, memapsin 2, [I] < 100 (nM)
[4] = memapsin 2, apparent Ki in presence of substrate FS-2
[5] = memapsin 2, independent of substrate, converted from Ki apparent

T1 sequence (P56817 41-454 limits assumed): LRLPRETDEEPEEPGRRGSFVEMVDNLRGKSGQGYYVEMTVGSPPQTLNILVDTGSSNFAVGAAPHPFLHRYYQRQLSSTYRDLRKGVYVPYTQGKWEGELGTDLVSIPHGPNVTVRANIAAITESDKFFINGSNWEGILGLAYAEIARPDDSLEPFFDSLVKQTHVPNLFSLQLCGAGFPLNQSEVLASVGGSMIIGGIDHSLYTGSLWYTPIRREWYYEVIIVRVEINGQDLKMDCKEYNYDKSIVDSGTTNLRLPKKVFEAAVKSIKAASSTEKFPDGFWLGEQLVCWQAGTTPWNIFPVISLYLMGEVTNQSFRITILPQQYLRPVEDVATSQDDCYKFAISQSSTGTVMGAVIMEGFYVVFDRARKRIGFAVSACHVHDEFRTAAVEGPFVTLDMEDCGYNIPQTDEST

Compound	Ki [1] [nM]	Ki [2] [nM]	Vi/Vo	also measured
CC(C)C[C@H](NC(=O)OC(C)(C)C)[C@@H](O)C[C@@H](C)C(=O)N[C@@H](C)C(=O)NCc1ccccc1 [MMI-001]	2.37e+06	–	–	–
CSCC[C@H](NC(=O)OCCn1nc(C)c2c1CSC2)C(=O)N[C@@H](CC(C)C)[C@@H](O)C[C@@H](C)C(=O)N[C@@H](CC(C)C)C(=O)NC(C)C [MMI-221]	1190	1910	–	–
CSC[C@H](NC(=O)OCc1ccccn1)C(=O)N[C@@H](CC(C)C)[C@@H](O)C[C@@H](C)C(=O)N[C@H](C(=O)NCc1ccccc1)C(C)C [MMI-125]	–	–	0.76	–
CC(C)C[C@H](NC(=O)[C@H](CCS(C)(=O)=O)NC(=O)[C@@H](NC(=O)OC(C)(C)C)C(C)C)[C@@H](O)C[C@@H](C)C(=O)N[C@H](C(=O)NCc1cccnc1)C(C)C [MMI-088]	646	1030	–	–
CSCC[C@H](NC(=O)[C@H](CC(C)C)NS(C)(=O)=O)C(=O)N[C@@H](CC(C)C)[C@@H](O)C[C@@H](C)C(=O)N[C@H](C(=O)NCc1ccccc1)C(C)C [MMI-093]	7.45	11.9	–	–
COc1ccc(C(=O)N[C@@H](CCSC)C(=O)N[C@@H](CC(C)C)[C@@H](O)C[C@@H](C)C(=O)N[C@@H](CC(C)C)C(=O)NC(C)C)cc1 [MMI-208]	1220	1950	–	Ki [3]: 407 nM
CSCC[C@H](NC(=O)OCc1cccnc1)C(=O)N[C@@H](Cc1ccccc1)[C@@H](O)C[C@@H](C)C(=O)N[C@H](C(=O)NCc1ccccc1)C(C)C [MMI-040]	1290	2070	–	–
COCC[C@H](NC(=O)C(Cn1nc(C)cc1C)C(C)C)C(=O)N[C@@H](CC(C)C)[C@@H](O)C[C@@H](C)C(=O)N[C@H](C(=O)NCC(C)C)C(C)C (some centres unmarked) [MMI-228]	110	176	–	–
CSCC[C@H](NC(=O)[C@@H](NC(=O)OC(C)(C)C)C(C)C)C(=O)N[C@@H](CC(C)C)[C@@H](O)C[C@@H](C)C(=O)N[C@@H](C(C)C)C1CCCCO1 (some centres unmarked) [MMI-130]	68600	–	–	–
CSCC[C@H](NC(=O)OCc1ncc(C)n1C)C(=O)N[C@@H](CC(C)C)[C@@H](O)C[C@@H](C)C(=O)N[C@H](C(=O)NCC(C)C)C(C)C [MMI-188]	144	230	–	–
CC(C)C[C@H](NC(=O)[C@H](CCO)NC(=O)c1cnc2ccccc2c1)[C@@H](O)C[C@@H](C)C(=O)N[C@H](C(=O)N[C@H]1c2ccccc2C[C@H]1O)C(C)C [MMI-049]	124000	–	–	–
CSCC[C@H](NC(=O)[C@@H](NC(=O)OC(C)(C)C)C(C)C)C(=O)N[C@@H](CC(C)C)[C@@H](O)C[C@@H](C)C(=O)N[C@H]1CCCC[C@@H]1O [MMI-051]	–	–	–	Ki app [4]: N.I.; Ki [5]: N.I.
CC(C)C[C@H](NC(=O)[C@H](CCS(C)(=O)=O)NC(=O)[C@@H](NC(=O)OC(C)(C)C)C(C)C)[C@@H](O)C[C@@H](C)C(=O)N[C@@H](C)C(=O)NCc1ccccc1 [MMI-009]	56.2	89.9	–	–
CC(C)C[C@H](NC(=O)[C@H](CCS(C)(=O)=O)NC(=O)[C@@H](NC(=O)OC(C)(C)C)C(C)C)[C@@H](O)C[C@@H](C)C(=O)N[C@H](CO)C(C)C [MMI-043]	30700	49200	–	–
COc1ccccc1C(=O)N[C@@H](CCSC)C(=O)N[C@@H](CC(C)C)[C@@H](O)C[C@@H](C)C(=O)N[C@@H](CC(C)C)C(=O)NC(C)C [MMI-207]	988	1580	–	Ki [3]: 1830 nM
CC(C)C[C@H](NC(=O)[C@H](C)C[C@H](O)[C@H](CC(C)C)NC(=O)[C@H](CS(C)(=O)=O)NC(=O)OCc1cccnc1)C(=O)NCc1ccccc1 [MMI-143]	–	–	1	–
CSCC[C@H](NC(=O)[C@H](CC(C)C)NC(=O)OC(C)(C)C)C(=O)N[C@@H](CC(C)C)[C@@H](O)C[C@@H](C)C(=O)N[C@H](C(=O)NCc1ccco1)C(C)C [MMI-161]	0.43	0.68	0.06	–
CSCC[C@H](NC(=O)[C@@H](NC(=O)OC(C)(C)C)C(C)C)C(=O)N[C@@H](CC(C)C)[C@@H](O)C[C@]1(C)CCN([C@H](C(=O)NCC(C)C)C(C)C)C1=O [MMI-187]	–	–	–	Ki app [4]: N.I.; Ki [5]: N.I.
CSC[C@H](NC(=O)OCc1ccccn1)C(=O)N[C@@H](CC(C)C)[C@@H](O)C[C@@H](C)C(=O)N[C@@H](CC(C)C)C(=O)NCc1ccccc1 [MMI-124]	–	–	0.93	–
CSCCC(NC(=O)[C@@H](NC(=O)OC(C)(C)C)C(C)C)C(=O)N[C@@H](CC(C)C)[C@@H](O)C[C@@H](C)C(=O)N[C@H](C(=O)NCc1ccccc1)[C@H](C)O (some centres unmarked) [MMI-081]	–	–	0.87	–
C=CCNC(=O)C[C@H](NC(=O)[C@@H](NC(=O)OCC=C)C(C)C)C(=O)N[C@@H](CC(C)C)[C@@H](O)C[C@@H](C)C(=O)N[C@H](C(=O)NCc1ccccc1)C(C)C [MMI-148]	16.2	25.9	0.46	–

Compound	Ki [1] [nM]	Ki [2] [nM]	Vi/Vo	also measured
CSCC[C@H](NC(=O)OCc1ccoc1)C(=O)N[C@@H](CC(C)C)[C@@H](O)C[C@@H](C)C(=O)N[C@H](C(=O)NCc1ccccc1)C(C)C [MMI-118]	194	311	0.48	–
CCC[C@H](C[C@H](O)[C@H](CC(C)C)NC(=O)[C@H](CSC)NC(=O)O[C@@H]1C[C@@H]2CCO[C@@H]2C1)C(=O)N[C@H](C(=O)NCc1ccccc1)C(C)C [MMI-027]	7220	11500	–	–
CC(C)C[C@H](NC(=O)OC(C)(C)C)[C@@H](O)C[C@@H](C)C(=O)N[C@@H](C)C(=O)N[C@@H](CCS(C)(=O)=O)C(=O)NCc1ccccc1 [MMI-003]	1.66e+06	–	–	–
CC(C)C[C@H](NC(=O)[C@H](C)C[C@H](O)[C@H](CC(C)C)NC(=O)[C@H](CCS(C)(=O)=O)NC(=O)[C@@H](NC(=O)OC(C)(C)C)C(C)C)C(=O)NC1Cc2ccccc2C1 [MMI-067]	45.9	73.5	–	–
CC(C)C[C@H](NC(=O)[C@@H]1CC(=O)NCCCCOC(=O)N[C@@H](C(C)C)C(=O)N1)[C@@H](O)C[C@@H](C)C(=O)N[C@H](C(=O)NCc1ccccc1)C(C)C [MMI-150]	–	–	0.8	–
CSCC[C@H](NC(=O)C(C)Cn1nc(C)cc1C)C(=O)N[C@@H](CC(C)C)[C@@H](O)C[C@@H](C)C(=O)N[C@H](C(=O)NCc1ccco1)C(C)C (some centres unmarked) [MMI-214]	11.9	19	–	–
CSCC[C@H](NC(=O)OCc1c(C)ncn1C)C(=O)N[C@@H](CC(C)C)[C@@H](O)C[C@@H](C)C(=O)N[C@H](C(=O)NCC(C)C)C(C)C [MMI-189]	224	358	–	–
CSCC[C@@H](NC(=O)[C@H](CC(C)C)NC(=O)OC(C)(C)C)C(=O)N[C@@H](CC(C)C)[C@@H](O)C[C@@H](C)C(=O)N[C@H](C(=O)NCc1ccccc1)C(C)C [MMI-104]	520	831	–	–
CC(C)C[C@H](NC(=O)[C@H](CCS(C)(=O)=O)NC(=O)OCc1ccco1)[C@@H](O)C[C@@H](C)C(=O)N[C@H](C(=O)NCc1ccccc1)C(C)C [MMI-136]	–	–	0.87	–
CSCC[C@H](NC(=O)OCn1nc(C)cc1C)C(=O)N[C@@H](CC(C)C)[C@@H](O)C[C@@H](C)C(=O)N[C@@H](CC(C)C)C(=O)NC(C)C [MMI-224]	43.8	70	–	–
CCC[C@H](C[C@H](O)[C@H](CC(C)C)NC(=O)[C@H](CSC)NC(=O)O[C@H]1CO[C@H]2OCC[C@H]21)C(=O)N[C@H](C(=O)NCc1ccccc1)C(C)C [MMI-028]	6170	9870	–	–
CSCC[C@H](NC(=O)[C@@H](NC(=O)OC(C)(C)C)C(C)C)C(=O)N[C@@H](CC(C)C)[C@@H](O)C[C@H](C(=O)N[C@H](C(=O)NCc1ccccc1)C(C)C)C(C)C [MMI-202]	430	688	–	–
CC(C)C[C@H](NC(=O)[C@@H]1CC(=O)NCCCCCOC(=O)N[C@@H](C(C)C)C(=O)N1)[C@@H](O)C[C@@H](C)C(=O)N[C@H](C(=O)NCc1ccccc1)C(C)C [MMI-153]	–	–	0.68	–
CC[C@H](C)[C@H](NC(=O)[C@H](C)C[C@H](O)[C@H](CC(C)C)NC(=O)C(CCSC)NC(=O)[C@H](CC(C)C)NC(=O)OC(C)(C)C)C(=O)NCc1ccccc1 (some centres unmarked) [MMI-099]	182	290	–	–
CSCC[C@H](NC(=O)[C@@H](NC(=O)OC(C)(C)C)C(C)C)C(=O)N[C@@H](CC(C)C)[C@@H](O)C[C@@H](C)C(=O)N[C@H]1c2ccccc2C[C@H]1O [MMI-046]	93700	–	–	–
CSCC[C@H](NC(=O)[C@H](CC(C)C)NC(=O)OC(C)(C)C)C(=O)N[C@@H](CC(C)C)[C@H](O)C[C@H](C)C(=O)N[C@H](C(=O)NCc1ccccc1)C(C)C [MMI-133]	0.33	0.52	0.09	–
CCCCNC(=O)[C@@H](NC(=O)[C@H](C)C[C@H](O)[C@H](CC(C)C)NC(=O)[C@H](CCSC)NC(=O)[C@H](CC(C)C)NC(=O)OC(C)(C)C)C(C)C [MMI-159]	0.5	0.8	0.07	–
CSCC[C@H](NC(=O)[C@H](CC(C)C)NC(C)=O)C(=O)N[C@@H](CC(C)C)[C@@H](O)C[C@@H](C)C(=O)N[C@H](C(=O)NCc1ccccc1)C(C)C [MMI-094]	40.1	64.1	–	–
CSCC[C@H](NC(=O)[C@@H](NC(=O)OC(C)(C)C)C(C)C)C(=O)N[C@@H](CC(C)C)[C@@H](O)C[C@@H](C)C(=O)N[C@@H](C(C)C)C1CC(Cc2ccccc2)CCO1 (some centres unmarked) [MMI-147]	–	–	1.1	–
CC(C)C[C@H](NC(=O)[C@H](CC(N)=O)NC(=O)[C@@H](N)C(C)C)[C@@H](O)C[C@@H](C)C(=O)N[C@@H](C)C(=O)N[C@@H](CCC(=O)O)C(=O)O [OM01-1] (H-VN[LeuΨ(S-CHOHCH2)Ala]AE-OH)	–	–	–	Ki (memapsin 2, read-out: Ki): 126 nM
CC(C)C[C@H](NC(=O)[C@H](CC(N)=O)NC(=O)OC(C)(C)C)[C@@H](O)C[C@@H](C)C(=O)N[C@H](C(=O)NCc1ccccc1)C(C)C [MMI-011]	3100	4880	–	–
